Source: publication PMC10987480, “Biological and mutational analyses of CXCR4–antagonist interactions and design of new antagonistic analogs” (Bioscience Reports, 2023)
Positions of bridges follow the written chain, without caps; N, C: chain ends. Non-standard residues stand in square brackets, D forms with d. Chains are numbered I, II in the order given. No end group written: not given here.

Assays:
[1] = biological target: T1, CXCR4 R30A (Homo sapiens, UniProt P61073, R30A); assay: Competitive binding to CXCR4 mutant R30A (12G5, CHO cells); design: key to the marks not given beside the values; settings: TM1, class of reduction vs wild-type CXCR4, 12G5 competition, averages of at least three independent experiments
T1 construct: expressed in transfected cells
T1 sequence (P61073 whole entry R30A): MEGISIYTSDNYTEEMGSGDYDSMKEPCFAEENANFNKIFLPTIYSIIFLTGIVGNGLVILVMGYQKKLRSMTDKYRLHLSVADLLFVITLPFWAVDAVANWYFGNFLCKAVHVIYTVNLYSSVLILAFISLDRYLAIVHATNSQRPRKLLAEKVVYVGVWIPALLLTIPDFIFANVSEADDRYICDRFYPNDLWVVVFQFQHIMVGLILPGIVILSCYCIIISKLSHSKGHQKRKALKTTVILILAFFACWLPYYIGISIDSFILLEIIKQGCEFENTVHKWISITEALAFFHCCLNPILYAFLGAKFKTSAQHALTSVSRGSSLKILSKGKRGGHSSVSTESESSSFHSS
Experimental: (§1) Plasmid pcDNA3-CXCR4 and mutated pcDNA3-CXCR4 were extracted and transfected into CHO cells using Lipofectamine 2000 according to the manufacturer’s guidelines. The selective medium containing G418 at a concentration of 1.2 mg/ml was applied to isolate stably transfected cells. CHO cells expressing wild-type CXCR4 and mutant CXCR4 were obtained using fluorescence-activated cell sorting (FACS).
(§2) All of the CXCR4 mutants were prepared using PCR technology. Briefly, pairs of asymmetrical primers containing the desired amino acid mutations (Supplementary Tables S1 and S2), each complementary to opposite strands of the pcDNA3–CXCR4, were designed for amplification by Q5® High-Fidelity DNA polymerase and the generation of mutated constructs. The methylated pcDNA3–CXCR4 templates were digested by DpnI. The mutated pcDNA3–CXCR4 was transformed into competent E. coli TOP10 for long-term storage and amplification.
(§3) The procedure for the CXCR4 competitive binding experiments was published previously. Briefly, CXCR4 antibody 12G5 (250 ng/ml) was incubated with 5 × 10^5 cells and varying concentrations of unlabeled compounds in a final volume of 100 μl of assay buffer (PBS with 0.5% BSA and 0.05% NaN3) in 96-well plates for 40 min on ice, after being washed with assay buffer once. The cells were incubated with FITC-conjugated second antibody IgG for 30 min on ice, then washed with assay buffer three times. The fluorescence intensity was measured for excitation at 485 nm and emission at 535 nm using multimode plate reader (PerkinElmer). The IC50 values were calculated using graphpad Prism 7. Experiments were performed at least three times.

[2] = biological target: T2, CXCR4 D97A (Homo sapiens, UniProt P61073, D97A); assay: Competitive binding to CXCR4 mutant D97A (12G5, CHO cells); settings: TM2, class of reduction vs wild-type CXCR4, 12G5 competition, averages of at least three independent experiments
T2 construct: expressed in transfected cells
T2 sequence (P61073 whole entry D97A): as the sequence (P61073 whole entry R30A) above, with A30R, D97A counted along it
Experimental: as §1, §2, §3

[3] = biological target: T3, CXCR4 V112A (Homo sapiens, UniProt P61073, V112A); assay: Competitive binding to CXCR4 mutant V112A (12G5, CHO cells); settings: TM3, class of reduction vs wild-type CXCR4, 12G5 competition, averages of at least three independent experiments
T3 construct: expressed in transfected cells
T3 sequence (P61073 whole entry V112A): as the sequence (P61073 whole entry R30A) above, with A30R, V112A counted along it
Experimental: as §1, §2, §3

[4] = biological target: T4, CXCR4 H113A (Homo sapiens, UniProt P61073, H113A); assay: Competitive binding to CXCR4 mutant H113A (12G5, CHO cells); settings: TM3, class of reduction vs wild-type CXCR4, 12G5 competition, averages of at least three independent experiments
T4 construct: expressed in transfected cells
T4 sequence (P61073 whole entry H113A): as the sequence (P61073 whole entry R30A) above, with A30R, H113A counted along it
Experimental: as §1, §2, §3

[5] = biological target: T5, CXCR4 W161A (Homo sapiens, UniProt P61073, W161A); assay: Competitive binding to CXCR4 mutant W161A (12G5, CHO cells); settings: TM4, class of reduction vs wild-type CXCR4, 12G5 competition, averages of at least three independent experiments
T5 construct: expressed in transfected cells
T5 sequence (P61073 whole entry W161A): as the sequence (P61073 whole entry R30A) above, with A30R, W161A counted along it
Experimental: as §1, §2, §3

[6] = biological target: T6, CXCR4 D193A (Homo sapiens, UniProt P61073, D193A); assay: Competitive binding to CXCR4 mutant D193A (12G5, CHO cells); settings: TM4, class of reduction vs wild-type CXCR4, 12G5 competition, averages of at least three independent experiments
T6 construct: expressed in transfected cells
T6 sequence (P61073 whole entry D193A): as the sequence (P61073 whole entry R30A) above, with A30R, D193A counted along it
Experimental: as §1, §2, §3

[7] = biological target: T7, CXCR4 H203A (Homo sapiens, UniProt P61073, H203A); assay: Competitive binding to CXCR4 mutant H203A (12G5, CHO cells); settings: TM5, class of reduction vs wild-type CXCR4, 12G5 competition, averages of at least three independent experiments
T7 construct: expressed in transfected cells
T7 sequence (P61073 whole entry H203A): as the sequence (P61073 whole entry R30A) above, with A30R, H203A counted along it
Experimental: as §1, §2, §3

[8] = biological target: T8, CXCR4 W252A (Homo sapiens, UniProt P61073, W252A); assay: Competitive binding to CXCR4 mutant W252A (12G5, CHO cells); settings: TM6, class of reduction vs wild-type CXCR4, 12G5 competition, averages of at least three independent experiments
T8 construct: expressed in transfected cells
T8 sequence (P61073 whole entry W252A): as the sequence (P61073 whole entry R30A) above, with A30R, W252A counted along it
Experimental: as §1, §2, §3

[9] = biological target: T9, CXCR4 Y255A (Homo sapiens, UniProt P61073, Y255A); assay: Competitive binding to CXCR4 mutant Y255A (12G5, CHO cells); settings: TM6, class of reduction vs wild-type CXCR4, 12G5 competition, averages of at least three independent experiments
T9 construct: expressed in transfected cells
T9 sequence (P61073 whole entry Y255A): as the sequence (P61073 whole entry R30A) above, with A30R, Y255A counted along it
Experimental: as §1, §2, §3

[10] = biological target: T10, CXCR4 Y256A (Homo sapiens, UniProt P61073, Y256A); assay: Competitive binding to CXCR4 mutant Y256A (12G5, CHO cells); settings: TM6, class of reduction vs wild-type CXCR4, 12G5 competition, averages of at least three independent experiments
T10 construct: expressed in transfected cells
T10 sequence (P61073 whole entry Y256A): as the sequence (P61073 whole entry R30A) above, with A30R, Y256A counted along it
Experimental: as §1, §2, §3

[11] = biological target: T11, CXCR4 D262E (Homo sapiens, UniProt P61073, D262E); assay: Competitive binding to CXCR4 mutant D262E (12G5, CHO cells); settings: TM6, class of reduction vs wild-type CXCR4, 12G5 competition, averages of at least three independent experiments
T11 construct: expressed in transfected cells
T11 sequence (P61073 whole entry D262E): as the sequence (P61073 whole entry R30A) above, with A30R, D262E counted along it
Experimental: as §1, §2, §3

[12] = biological target: T12, CXCR4 H281A (Homo sapiens, UniProt P61073, H281A); assay: Competitive binding to CXCR4 mutant H281A (12G5, CHO cells); settings: TM7, class of reduction vs wild-type CXCR4, 12G5 competition, averages of at least three independent experiments
T12 construct: expressed in transfected cells
T12 sequence (P61073 whole entry H281A): as the sequence (P61073 whole entry R30A) above, with A30R, H281A counted along it
Experimental: as §1, §2, §3

[13] = biological target: T13, CXCR4 I284A (Homo sapiens, UniProt P61073, I284A); assay: Competitive binding to CXCR4 mutant I284A (12G5, CHO cells); settings: TM7, class of reduction vs wild-type CXCR4, 12G5 competition, averages of at least three independent experiments
T13 construct: expressed in transfected cells
T13 sequence (P61073 whole entry I284A): as the sequence (P61073 whole entry R30A) above, with A30R, I284A counted along it
Experimental: as §1, §2, §3

[14] = biological target: T14, CXCR4 (Homo sapiens, UniProt P61073); assay: SDF-1α-induced cell migration assay in SupT1 cells (transwell); type: cell-based; design: host or cells: SupT1 cells; settings: 2 nM SDF-1α, 30 min pre-incubation, 3 h migration
T14 sequence (P61073 whole entry): as the sequence (P61073 whole entry R30A) above, with A30R counted along it
Experimental: (§4) Figure 2 The inhibitory effect of the antagonists on SDF-1α-induced cell chemotaxis and calcium mobilization in SupT1 cells The antagonists and concentrations used were labeled in each lane. (A) The inhibition of cell migration by the noted antagonists. SupT1 cells pre-treated with or without CXCR4 antagonists were seeded in the upper well and cell migrated by 2 nM SDF-1α. Migrated cells without SDF-1α were used as a negative (0%) and migrated cell induced by SDF-1α as a positive control (100%). […] SupT1 cells were treated with or without CXCR4 antagonists and activated by 50 nM SDF-1α. To directly compare the inhibitory effect of the antagonists on calcium mobilization, the vehicle background and baseline were removed using GraphPad and Origin. The data were averages of at least three independent experiments.
SupT1 cells (2 × 10^6 cells per well in 75 μl) were collected and washed using assay buffer (RPMI 1640 supplemented with 0.5% BSA) and incubated with various concentrations of tested compounds for 30 min in the upper well of the transwell-96 well plates with 5.0 µm pore polycarbonate membrane insert (Corning, U.S.A.). Then, 200 μl assay buffer containing 2 nM SDF-1α was added to the lower well and cells were allowed to migrate for 3 h. Migrated cells were measured using celltiter-96 reagent.

[15] = biological target: T14, CXCR4; assay: SDF-1α-induced calcium mobilization assay in SupT1 cells (Fluo-4); type: cell-based; design: host or cells: SupT1 cells; settings: 50 nM SDF-1α
Experimental: as §4
SupT1 cells were collected and washed using HHBS buffer (Hanks’ Balanced Salt solution supplemented with 20 mM HEPES) and incubated with 1 mM probenecid (Energy Chemical, China) and 4 μM Fluo-4 (AAT bioquest, U.S.A.) for 37°C for 30 min with vortex every 5 min. After being washed with HHBS, cells were suspended in PBS at 2 × 10^6/ml and seeded 200 μl cells and various concentrations of compounds per well in 96-well plate. Following 50 nM SDF-1α was added to each well, the fluorescence intensity was measured (Ex/Em = 496/516 nm) using EnSpire® multimode plate reader (PerkinElmer, U.S.A.).

Substance | Competitive receptor binding activity, CXCR4 R30A [1] | Competitive receptor binding activity, CXCR4 D97A [2] | Competitive receptor binding activity, CXCR4 V112A [3] | Competitive receptor binding activity, CXCR4 H113A [4] | Competitive receptor binding activity, CXCR4 W161A [5] | Competitive receptor binding activity, CXCR4 D193A [6] | Competitive receptor binding activity, CXCR4 H203A [7] | Competitive receptor binding activity, CXCR4 W252A [8] | Competitive receptor binding activity, CXCR4 Y255A [9] | Competitive receptor binding activity, CXCR4 Y256A [10] | Competitive receptor binding activity, CXCR4 D262E [11] | Competitive receptor binding activity, CXCR4 H281A [12] | Competitive receptor binding activity, CXCR4 I284A [13] | inhibition at 2 µM ([14]; SUP-T1, at 2 μM) | inhibition at 1 µM ([15]; SUP-T1, at 1 μM) | Inhibition of cell migration ([14]; at 50 nM) | Inhibition of the calcium signal ([15]; at 50 nM)
I: [dL]G[dA][dS][dW][dH][dR][dP][dD][dK][dC][dC][dL]G[dY][dQ][dK][dR][dP][dL][dP] / II: [dL]G[dA][dS][dW][dH][dR][dP][dD][dK][dC][dC][dL]G[dY][dQ][dK][dR][dP][dL][dP] (disulfide I:11-II:11, I:12-II:12) [DV1 dimer] | +++ | ++ (10–29% reduction compared with wild-type CXCR4) | +++ | + (30–60% reduction compared with wild-type CXCR4) | +++ | ++ (10–29% reduction compared with wild-type CXCR4) | ++ (10–29% reduction compared with wild-type CXCR4) | +++ | +++ | +++ | ++ (10–29% reduction compared with wild-type CXCR4) | ++ (10–29% reduction compared with wild-type CXCR4) | +++ | 43% | 75% |  | 
LGASWHRPDKCCLGYQKRPLPQVLLSSWYPTSQLCSKPGVIFLTKRGRQVCADKSKDWVKKLMQQLPVTAR [vMIP-II, viral macrophage-inflammatory protein-II, full-length natural chemokine antagonist produced by human herpesvirus-8; recombinant from Peprotech] | +++ | ++ (10–29% reduction compared with wild-type CXCR4) | +++ | +++ | +++ | ++ (10–29% reduction compared with wild-type CXCR4) | +++ | +++ | +++ | +++ | ++ (10–29% reduction compared with wild-type CXCR4) | +++ | +++ |  |  | 64% | 64%
